Some test systems named below: CCRF-CEM; LOX IMVI; TK-10; M14; OVCAR-3; SNB-75; HL-60; SF-268; NCI/ADR-RES; NCI-H522; CAKI-1; HCT-116; NCI-H226; COLO 205; UO-31; SN12C; MOLT-4; DMS-114; DLD-1; DMS-273.
What all share (assay): NCI anticancer screen, dose series, 48 h

Where “and” joins values, the source holds several entries; their conditions need not be identical. Equal values may be shown once.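 These data come from cells grown in 96-well plates and exposed to compound for 48 hours at five concentrations. Abbreviation: GI50, concentration required for 50% inhibition of growth.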 Calls of active or inactive are those of the source. Cut-off read from the data, not from the text of the source: active = GI50 up to about 1.1 µM and inactive = higher. Where only a bound is given, the exact number is not on record here.

For `CC(NC(=O)C(NC(=O)CNC(=O)OC(C)(C)C)C(C)C)C(=O)Oc1c(Cl)c(Cl)c(Cl)c(Cl)c1Cl` (stereo not given), the GI50 was 51.1 µM (inactive) with CCRF-CEM; 15.5 µM (inactive) in the assay on LOX IMVI; 26.8 µM (inactive) with TK-10; 18.8 µM (inactive) in the assay with M14; 13.2 µM (inactive) in the assay with OVCAR-3; 28 µM (inactive) with SNB-75. In addition, the GI50 is 55.2 µM (inactive) in the assay on HL-60; 23 µM (inactive) in the assay on SF-268; 17.5 µM (inactive) in the assay with NCI/ADR-RES; 23.9 µM (inactive) in the assay on NCI-H522; 19 µM (inactive) with CAKI-1; 17.3 µM (inactive) in the assay with HCT-116. Moreover, the GI50 in the assay on NCI-H226 is 19.8 µM (inactive); in the assay with COLO 205, 17 µM (inactive); in the assay on UO-31, 16 µM (inactive); with SN12C, 19.2 µM (inactive); with MOLT-4 it was 34.6 µM (inactive).
For `CC1(CO)C(O)CCC2(C)C1C(O)CC1CC3CC12CCC3(O)CO` (stereo not given), the GI50 in the assay on DMS-114 is > 225 µM (inactive); in the assay on CCRF-CEM it was 138 µM (inactive); in the assay with LOX IMVI, > 225 µM (inactive); with OVCAR-3, > 225 µM (inactive); in the assay on DLD-1, > 225 µM (inactive); with SNB-75 it was > 189 µM (inactive). For the same compound, the GI50 was 104 µM (inactive) in the assay with DMS-273; 102 µM (inactive) in the assay with HL-60; > 191 µM (inactive) in the assay with SF-268; > 225 µM (inactive) in the assay on NCI/ADR-RES; > 225 µM (inactive) with NCI-H522; > 225 µM (inactive) with CAKI-1. The GI50 is > 217 µM (inactive) with HCT-116; 116 µM (inactive) in the assay on NCI-H226; > 225 µM (inactive) with COLO 205; > 217 µM (inactive) in the assay on UO-31; > 225 µM (inactive) in the assay on SN12C; > 96.6 µM (inactive) in the assay on MOLT-4.
On to `Cc1cc(OCC(O)CO)ccc1Cl` (stereo not given), for which the GI50 in the assay with DMS-114, in the assay with CCRF-CEM, in the assay on LOX IMVI, in the assay with TK-10, in the assay with M14 and with OVCAR-3 was > 100 µM (inactive) each time. Also, the GI50 is > 100 µM (inactive) with DLD-1; 87.3 µM (inactive) with SNB-75; > 100 µM (inactive) in the assay with DMS-273; > 100 µM (inactive) with HL-60; > 100 µM (inactive) in the assay on SF-268; > 100 µM (inactive) with NCI-H522. For the same compound, the GI50 in the assay with CAKI-1, in the assay with HCT-116, with NCI-H226, in the assay with COLO 205, in the assay with UO-31 and in the assay with SN12C was > 100 µM (inactive) throughout. The GI50 in the assay with MOLT-4 is > 100 µM (inactive).
Regarding `N#CCCN(CCC#N)c1ccc(/C=C2\N=C(c3cc([N+](=O)[O-])ccc3Cl)N(NC(=O)CC(=O)Nc3ccccc3Cl)C2=O)cc1`, the GI50 in the assay with DMS-114, with CCRF-CEM, with LOX IMVI, in the assay with TK-10, in the assay with M14 and in the assay with OVCAR-3 was > 100 µM (inactive) throughout. Also, the GI50 in the assay with DLD-1, in the assay with DMS-273, in the assay with SF-268, in the assay on NCI-H522, with CAKI-1 and in the assay on HCT-116 was > 100 µM (inactive) each time. For the same compound, the GI50 is 16.1 µM (inactive) in the assay on NCI-H226; > 100 µM (inactive) with COLO 205; > 100 µM (inactive) in the assay with UO-31; > 100 µM (inactive) with SN12C; > 100 µM (inactive) in the assay with MOLT-4.
Regarding `CC/C(CC(=O)CCC(=O)Nc1ccc(C)c(C)c1)=N\NC(=O)c1cc2ccccc2cc1O`, the GI50 with DMS-114 was 32.9 µM (inactive); in the assay with CCRF-CEM it was 5.2 µM (inactive); with LOX IMVI, 16.1 µM (inactive); in the assay with M14 it was 17.1 µM (inactive); in the assay on OVCAR-3, 18.6 µM (inactive); in the assay on DLD-1, 13.4 µM (inactive). Besides, the GI50 is 1.92 µM (inactive) with HL-60; 22.1 µM (inactive) with SF-268; 20.8 µM (inactive) in the assay on CAKI-1; 37.6 µM (inactive) with HCT-116; 13.4 µM (inactive) in the assay with NCI-H226; 37 µM (inactive) in the assay with COLO 205. Further, the GI50 with UO-31 is 26 µM (inactive); in the assay with SN12C, 28.3 µM (inactive); in the assay with MOLT-4 it was 11.4 µM (inactive).
Consider `COc1ccc(NC(=O)/C(=C/c2ccc(N(CCC#N)CCC#N)cc2)NC(=O)c2cc([N+](=O)[O-])ccc2Cl)cc1`, for which the GI50 in the assay on CCRF-CEM was 71.6 µM (inactive); with LOX IMVI, 18.4 µM (inactive); with TK-10 it was 66.1 µM (inactive); with M14, > 100 µM (inactive); in the assay with OVCAR-3 it was 94.4 µM (inactive); with DLD-1, 15.3 µM (inactive). Further, the GI50 in the assay with DMS-273 was 34.4 µM (inactive); in the assay with SF-268, 27.2 µM (inactive); with NCI-H522, 4.27 µM (inactive); in the assay with CAKI-1 it was 26.2 µM (inactive); in the assay with HCT-116, 48.2 µM (inactive); in the assay with NCI-H226, > 100 µM (inactive). Also, the GI50 in the assay with COLO 205 was 59.8 µM (inactive); in the assay with UO-31 it was 9.91 µM (inactive); with SN12C it was > 100 µM (inactive); with MOLT-4, 83.8 µM (inactive).
As for `COC(=N)C(C)C`, the GI50 in the assay with DMS-114, in the assay with CCRF-CEM, in the assay with LOX IMVI, with TK-10, in the assay with M14 and with OVCAR-3 was > 100 µM (inactive) throughout. Moreover, the GI50 in the assay with DLD-1, in the assay with SNB-75, in the assay on DMS-273, in the assay with HL-60, in the assay with SF-268 and with NCI-H522 was > 100 µM (inactive) in each case. For the same compound, the GI50 in the assay with CAKI-1, in the assay with HCT-116, with NCI-H226, in the assay on COLO 205, with UO-31 and with SN12C was > 100 µM (inactive) throughout. Moreover, the GI50 with MOLT-4 is > 100 µM (inactive).
`NC(CSC(=O)c1ccccc1)C(=O)O` (stereo not given): the GI50 in the assay with CCRF-CEM, with LOX IMVI, in the assay on TK-10, in the assay on M14, with OVCAR-3 and in the assay on SNB-75 was > 100 µM (inactive) in each case. Also, the GI50 in the assay on HL-60, in the assay on SF-268, in the assay on NCI/ADR-RES, in the assay on NCI-H522, in the assay with CAKI-1 and in the assay on HCT-116 was > 100 µM (inactive) throughout. Also, the GI50 in the assay on NCI-H226, in the assay with COLO 205, in the assay on UO-31, in the assay with SN12C and in the assay with MOLT-4 was > 100 µM (inactive) each time.
Turning to `CC#CC#C/C=C1\C=CC2(OC=CC2OC(C)=O)O1` (stereo not given), the GI50 with DMS-114 is 18.2 µM (inactive); with CCRF-CEM, 8.41 µM (inactive) and 14 µM (inactive); with LOX IMVI it was 30.1 µM (inactive) and 16.1 µM (inactive); in the assay with TK-10, 34 µM (inactive) and 28.1 µM (inactive); in the assay on M14 it was 29.8 µM (inactive) and 18.4 µM (inactive); with OVCAR-3 it was 32.2 µM (inactive). Further, the GI50 with DLD-1 is 16.5 µM (inactive); in the assay with SNB-75, 38.3 µM (inactive) and 24.9 µM (inactive); with DMS-273 it was 20.1 µM (inactive); in the assay with HL-60 it was 20.2 µM (inactive) and 10.4 µM (inactive); in the assay with SF-268 it was 23.7 µM (inactive) and 19.4 µM (inactive); in the assay on NCI/ADR-RES, 28.6 µM (inactive). For the same compound, the GI50 is 15.2 µM (inactive) and > 10 µM (inactive) in the assay on CAKI-1; 15 µM (inactive) and 16.4 µM (inactive) in the assay on COLO 205; 15.5 µM (inactive) and 18.4 µM (inactive) with UO-31; 15.7 µM (inactive) and 16.5 µM (inactive) with SN12C.
Turning to `O=C1C=C2SC3C[C@@]24CC1(O)[N+]1=c2c4c(c(O)c4c2=C(C=N4)CC1)N3`, the GI50 is 0.219 µM (active) in the assay on DMS-114; 0.321 µM (active) in the assay on CCRF-CEM; 0.546 µM (active) with LOX IMVI; 0.206 µM (active) in the assay on OVCAR-3; 1.11 µM (active) with DLD-1; 1.83 µM (inactive) in the assay with SNB-75. Moreover, the GI50 in the assay with DMS-273 was 1.42 µM (inactive); in the assay with HL-60, 0.217 µM (active); in the assay with SF-268 it was 1.01 µM (active); in the assay on NCI/ADR-RES, 0.887 µM (active); in the assay with NCI-H522, 0.296 µM (active); in the assay with CAKI-1 it was 2.24 µM (inactive). Besides, the GI50 in the assay on HCT-116 is 0.217 µM (active); in the assay with NCI-H226, 1.78 µM (inactive); with COLO 205 it was 0.176 µM (active); with UO-31, 1.89 µM (inactive); in the assay with SN12C, 1.22 µM (inactive); with MOLT-4, 0.268 µM (active).
Turning to `COc1ccc(-c2cc(O)c3cc(C)cnc3n2)cc1`, the GI50 with CCRF-CEM is 3.21 µM (inactive); in the assay on LOX IMVI it was 6.5 µM (inactive); with TK-10, 2.86 µM (inactive); with M14 it was 3.94 µM (inactive); in the assay on SF-268, 6.81 µM (inactive); in the assay with NCI/ADR-RES, 3.73 µM (inactive). Also, the GI50 was 4.01 µM (inactive) with NCI-H522; 6.11 µM (inactive) in the assay with CAKI-1; 13 µM (inactive) with NCI-H226; 3.22 µM (inactive) in the assay on COLO 205; 7.85 µM (inactive) in the assay on UO-31; 5.13 µM (inactive) in the assay on SN12C. The GI50 in the assay with MOLT-4 is 4.43 µM (inactive).

Values taken from ChEMBL document CHEMBL1201862, “PubChem BioAssay data set” (2004).
